Measurements published in patent publication US11723911B2, “Treatment of demyelinating diseases” (M ET P PHARMA AG, priority 2018, dated 2023).

Key:
[1] = tested on: LPC-induced demyelination in young male adult mice; assay: LPC-induced demyelination of the corpus callosum with or without SAG (immunostaining at 2 and 10 dpl); assay type: in vivo, mouse
Protocol: Image Acquisition and Analysis. Images were taken using the microscope analyzing system Axiovision 4.2 (Carl Zeiss, Inc.), the confocal Zeiss LSM 510-Meta Confocor 2 and the scanner imager with the CaseViewer software. Analyses were performed with ImageJ software. At least 10 sections per mouse were analyzed and data are the mean of 3-5 mice. For the brains derived from the lysolecithin (LPC)-injected animals, immunofluorescent-positive cells or areas were determined in one every other 5 sections throughout the whole demyelinated lesion per mouse and averaged for each animal. The lesion surface was determined by measuring the area of the nuclear densification (correlated with myelin loss visualized by MBP or PLP staining) one every other 5 slices through the whole demyelinated lesion.
The effect of Smo activation by the Smo agonist SAG on demyelination was investigated as follows. LPC-induced demyelination was performed as previously described in Ferent et al., J. Neuroscience 33:1759-1772 (2013), in the absence or presence of SAG, in young male adult mice. Briefly, demyelinating lesions were induced unilaterally by stereotaxic injections of 2 μl of a solution containing LPC 1% (Sigma-Aldrich) along with SAG (0.2 μM) or the corresponding vehicle, into the right corpus callosum by using a Hamilton syringe specifically dedicated for neural surgery (NH BIO, France). The injection was performed at the following coordinates (to the bregma): anteroposterior (AP)+1 mm, lateral+1 mm, dorsoventral (DV) −2.2 mm. The brain was removed from deeply anesthetized mice and transcardially perfused with 4% PFA. The tissue was post-fixed for 4 hours in a fresh 4% PFA solution before being cryopreserved in 30% sucrose, frozen in liquid nitrogen and cryostat sectioned (14 μm). 4-5 mice were used per time point for each treatment condition. Mice were sacrificed at 2 and 10 days post-lesion (dpl), and prepared for immunostaining of PDGFRα, Olig2/APC, Ki67/PDGFRα, GFAP, and Iba1/Arg1. Images of immunostaining were acquired using immunofluorescence microscopy (data not shown), and the results were quantified by evaluating number of cells per surface unit for PDGFRα (FIG. 4A), Olig2/APC (FIG. 4B), Ki67/PDGFRα (FIG. 4C), GFAP (FIG. 4D), Iba1/Arg1 (FIG. 4E)

[2] = tested on: primary mixed glial cells; assay: Proliferation of Olig2+ cells (BrdU incorporation) in primary mixed glial cell cultures; assay type: cell-based, mouse; conditions: for Olig2+ BrdU+ proliferating cells as percentage of total Olig2+ cells: SAG 1 μM or testosterone 1 μM from 5 to 12 DIV, BrdU 2 hours before end of culture
Protocol: Primary glial cell cultures were prepared from the dorsal telencephalon of newborn (P1) male mice as previously described in Feutz et al, J. Neurocytol, “Isolation and characterization of defective jimpy oligodendrocytes in culture”, 24:865-877 ([…]). Briefly, meninges are removed, and the dorsal telencephalons are microdissected and mechanically dissociated in DMEM supplemented with 10% calf serum, penicillin (50 U/ml), and streptomycin (50 μg/ml) (Thermo Fisher Scientific, France). The cell suspension is plated in a 24-well plates containing 0.5 ml of cultured medium coated with 30 μg/ml poly-1-lysine (Sigma-Aldrich). Cultures containing astrocytes, oligodendrocytes (OLs) and microglia cells are then incubated in 5% CO2 and 95% air in a humidified atmosphere (90%) at 37° C.
[…]. The supplemented culture medium was replaced every other day with a fresh solution. At 12 DIV, the cells were fixed for 20 minutes with 4% paraformaldehyde (PFA) in PBS, then permeabilized with 0.025% Triton X-100 for 10 minutes and blocked for 1 hour with Sea Block buffer (Thermo Fisher Scientific).
The cells were immunostained for BrdU and Olig2. For immunostaining, after overnight incubation with the primary antibodies at 4° C. followed by 3 washes in PBS, the cells were incubated with the appropriate secondary antibodies for 2 hours before washing with PBS and the addition of Fluoromount (Vector, clinisciences, France) as the mounting medium. Images were acquired with immunofluorescence microscopy as described above. (Data not shown).

[3] = tested on: experimental autoimmune encephalomyelitis (EAE) in castrated male mice; assay: Experimental autoimmune encephalomyelitis (EAE): clinical score, electron microscopy and immunostaining of lumbar spinal cord; assay type: in vivo, mouse; conditions: for density of myelinated axons in spinal cord (electron microscopy) / g-ratio (axon diameter/total outer diameter of the myelinated fiber) / percentage of abnormal axons among total axons: 30 days post EAE induction; for g-ratio (axon diameter/total outer diameter of the myelinated fiber): small calibre axons (≤2.5 μm), n=3; for total density of activated Iba1+ microglia in the spinal cord: FIG. 5E; for EAE clinical score: between days 21 and 30, testosterone intranasal 0.2 mg/day, SAG oral gavage every other day; for area occupied by Arg1+ cells as percentage of the total area of the lesion: lumbar spinal cord, FIG. 5F; for percentage of abnormal axons among total axons / GFAP-positive area as percentage of the lesion area: spinal cord; for GFAP-positive area as percentage of the lesion area: FIG. 5G
Protocol: Electron microscopy. […] The g ratio (the ratio between the axon diameter and fiber diameter corresponding to myelin sheath+axon diameter) was estimated by measuring the minimum and maximum axon diameter and fiber diameter for each axon using ImageJ software. At least 300 randomly chosen myelinated axons were evaluated for each animal.
The pathology was induced according to the instructions from the provider (Hooke Laboratories, MA, USA). Briefly, mice were immunized by subcutaneous injection of an emulsion of MOG35-55 peptide (myelin oligodendrocyte glycoprotein[…] fragment 35-55) in complete Freund's adjuvant (at two sites using 0.1 ml of the pre-conditioned mixture for each site) followed on the same day (Day 0) by a first intraperitoneal injection of pertussis toxin in PBS and by a second one on Day 1 (250 ng/dose). The mice were scored blindly once a day starting at Day 7 post-immunization until Day 30 according to the following scale: 0.0=no obvious changes in motor function; 0.5=tip of tail is limp; 1.0=limp tail; 1.5=limp tail and hind leg inhibition; 2.0=limp tail and weakness of hind legs or signs of head tilting; 2.5=limp tail and dragging of hind legs or signs of head tilting; 3.0=limp tail and complete paralysis of hind legs or limb tail with paralysis of one front and one hind leg; 3.5=limp tail and complete paralysis of hind legs and animal unable to right itself when placed on its side; 4.0=limb tail, complete hind leg and partial front leg paralysis with minimal moving and feeding; 4.5=complete hind and partial front leg paralysis with no movement around the cage with the animal appearing no more alert; 5.0=extreme paralysis which requires euthanasia of the animal.
The active agents were administered at the onset of clinical symptoms until Day 30 after immunization. Testosterone was administered via the intranasal route (0.2 mg/day in a volume of 2.5 μl in each nostril) in an oleogel composition as described above. SAG was administered orally by gavage ([…] of mouse weight) every other day.
The animals were sacrificed by ketamine overdose. The spinal cord/vertebrae was removed and lumbar spinal cord/vertebrae samples were treated according to the requirements of the various histological procedures. For immunostaining, the spinal cord/vertebrae fragments were post-fixed in PFA 4% for 24 hrs. The spinal cords were removed from the vertebral column, processed in an ethanol/xylene bath and embedded in paraffin blocks. 7-μm sections were then obtained using a microtome (Leica) and allowed to dry on glass slides overnight at 37° C. For electron microscopy, the spinal cord/vertebrae fragments were post-fixed in a mixture of PFA 2% and glutaraldehyde 2% for 5 days. The spinal cords were removed from the vertebral column, post-fixed in cacodylate-buffered 1% osmium tetroxide for 1 hour at 4° C. and in 2% uranyl acetate for 1 hour at room temperature, and then dehydrated by serial dilutions of ethanol and embedded in epoxy resin. Ultrathin sections were contrasted with a saturated uranyl acetate solution.

[4] = tested on: primary mixed glial cells derived from Plp-EGP mice; assay: Differentiation of PLP+ oligodendroglial cells co-expressing MBP in primary mixed glial cells from Plp-EGFP mice; assay type: cell-based, mouse; conditions: for fold increase in the percentage of PLP+ cells co-expressing MBP compared to control / percentage of PLP+ cells co-expressing MBP: SANT 0.1 μM, testosterone 1 μM, alone or together; for percentage of PLP+ cells co-expressing MBP: 12 DIV
Protocol: Briefly, meninges are removed, and the dorsal telencephalons are microdissected and mechanically dissociated in DMEM supplemented with 10% calf serum, penicillin (50 U/ml), and streptomycin (50 μg/ml) (Thermo Fisher Scientific, France). The cell suspension is plated in a 24-well plates containing 0.5 ml of cultured medium coated with 30 μg/ml poly-1-lysine (Sigma-Aldrich).
The supplemented culture medium was replaced every other day with a fresh solution.
To analyse differentiation of myelin producing cells, the primary mixed glial cells were derived from Plp-EGP mice and cultured as described above. Detection of PLP+ cells co-expressing MBP was performed by using primary mixed glial cells derived from Plp-EGP mice and immunostaining for Mbp. Immunofluorescence images were acquired as described above and the number of PLP^+ cells co-expressing MBP were evaluated.

[5] = tested on: postnatal day 10 male pups; assay: Developmental myelination in male pups treated subcutaneously from P3 to P10 (MBP/NF200 immunostaining); assay type: in vivo, mouse; conditions: s.c. every other day from P3, SANT 20 μg/g, testosterone 20 μg
[6] = tested on: LPC-induced demyelination model, castrated male mice; assay: Phosphorylated STAT3-expressing astrocytes in castrated male mice demyelinated by lysolecithin; assay type: in vivo, mouse
From the text: […]. The latter is important for both remyelination and astrocyte reactivity, which is similar to activated microglia involved in local inflammation. […].

| SMILES | Olig2+ BrdU+ proliferating cells as percentage of total Olig2+ cells [2] [%] | density of myelinated axons in spinal cord (electron microscopy) [3] | g-ratio (axon diameter/total outer diameter of the myelinated fiber) [3] | total density of activated Iba1+ microglia in the spinal cord [3] | EAE clinical score [3] | area occupied by Arg1+ cells as percentage of the total area of the lesion [3] [%] | percentage of abnormal axons among total axons [3] [%] | GFAP-positive area as percentage of the lesion area [3] [%] | fold increase in the percentage of PLP+ cells co-expressing MBP compared to control [4] [fold] | percentage of PLP+ cells co-expressing MBP [4] [%] | myelinated area: area occupied by MBP as percentage of total area occupied by NF200 axons [5] [%] | also measured |
| --- | --- | --- | --- | --- | --- | --- | --- | --- | --- | --- | --- | --- |
| CN[C@H]1CC[C@H](N(Cc2cccc(-c3ccncc3)c2)C(=O)c2sc3ccccc3c2Cl)CC1 [SAG, 3-Chloro-N-[trans-4-(methylamino)cyclohexyl]-N-[[3-(4-pyridinyl)phenyl]methyl]benzo[b]thiophene-2-carboxamide] | 8.4±0.5 | much higher density of myelinated axons | 0.737±0.005 | Neither testosterone nor SAG was found to significantly modify | ~1.0 | 10.9±1.7 | 14.0±1.7 | 25.1±2.2 |  |  |  | Iba1+ microglia versus control ([1]; 2 dpl): unaffected; area occupied by GFAP+ astrocytes versus control ([1]; 2 dpl): tended to be decreased; density of Arg1+ pro-regenerative microglia ([1]; 2 dpl): 103±7 cells per surface unit; density of proliferating Ki67+ PDGFRα+ OPCs ([1]; 2 dpl): 39±2 cells per surface unit; fold enhancement of the density of Arg1+ microglia ([1]; 2 dpl): 2 fold; fold increase of the proportion of Iba1 microglia co-expressing Arg1 ([1]; 2 dpl): two-fold; proportion of Iba1 microglia co-expressing Arg1 ([1]; 2 dpl): 58±5%; total number of PDGFRα+ OPCs versus control ([1]; 2 dpl): remained unchanged; density of Olig2+ APC+ mature OLs ([1]; 10 dpl): 83±7 cells per surface unit; fold increase in PDGFRα+ cells compared to controls ([1]; 10 dpl): 2 fold; proportion of mature OLs versus control ([1]; 10 dpl): not significantly different; PDGFRα+ cells (OPCs) per unit surface ([1]; 10 dpl, SAG 0.2 μM injected with LPC): 121±11 cells per surface unit; Claudin 5-positive area as percentage of the lesion area ([3]; blood brain barrier tight junction marker, FIG. 5H): 2.35±0.27%; Effect on Mbp expression when used alone ([4]; SAG 0.1 μM or 1 μM alone): did not modify Mbp expression; Effect on testosterone-mediated OL differentiation ([4]; SAG 0.1 μM or 1 μM with testosterone 1 μM): slight but significant decrease |
| Cc1nn(-c2ccccc2)c(C)c1C=NN1CCN(Cc2ccccc2)CC1 [SANT-1, (4-Benzyl-piperazin-1-yl)-(3,5-dimethyl-1-phenyl-1H-pyrazol-4-ylmethylene)-amine] |  |  |  |  |  |  |  |  | 4 | 12.4±0.8 | 75.1±4.3 | Effect on testosterone-induced increase in Olig2+ BrdU+ cells ([2]; SANT-1 0.1 μM with testosterone 1 μM): blocks testosterone-induced increase |
| N#Cc1ccc(C2CCCc3cncn32)cc1 (stereo not shown) [fadrozole] |  |  |  |  |  |  |  |  |  |  |  | effect on the testosterone-induced increase of phosphorylated STAT3-expressing astrocytes ([6]; fadrozole per oral route 260 μg/kg with intranasal testosterone, 7 days): inhibited |
| C[C@]12CC[C@H]3[C@@H](CCC4=CC(=O)CC[C@@]43C)[C@@H]1CC[C@@H]2O [testosterone] | 3.8±0.6 | much higher density of myelinated axons | 0.773±0.003 | Neither testosterone nor SAG was found to significantly modify | ~2.0 | 6.8±1.4 | 15.8±1.4 | 38.8±1.8 | 4 | 11.7±1.5 | 78.0±4.1 | number of GFAP+ astrocytes expressing phosphorylated STAT3 ([6]; 7 days post-lesion, intranasal testosterone 0.2 mg/day or intranasal estradiol 0.05 mg/day): increased |
